Results reported in patent US10653651B2, “Kit for treating cancer with low molecular weight components of aurin tricarboxylic acid complex” (Aurin Biotech Inc., priority 2014, dated 2020).
Like-named read-outs stand apart in the source and are kept apart here.

How the values were obtained:
[1] = tested on: U251 cells; assay: Lactic dehydrogenase release from U251 cells; format: cell-based, human; conditions: n=4, read-out: IC50, lactate dehydrogenase release from U251 cells
Method: (§1) Experiment 4 was designed to confirm apoptotic cell death of U251 cells induced by ATA, AQA, AHA, and ATAC by measuring release of lactic dehydrogenase into the cell medium. For serum lactate dehydrogenase determination, reaction supernatants ([…]) were pipetted into the wells of 96-well plates, followed by the addition of […] lactate solution (36 mg/mL in PBS) and […] INT (iodonitrotetrazolium chloride, 2-(4-iodophenyl)-3-(4-nitrophenyl)-5-phenyl-2H-tetrazolium chloride) solution (2 mg/mL in PBS). The enzymatic reaction was started by addition of […] of NAD^+/diaphorase solution (3 mg/mL NAD^+; 2.3 mg solid/mL diaphorase). After 1 h, optical densities were measured with a microplate reader using a 490 nm filter. The amount of LDH released was expressed as a percentage of the value obtained in comparative cells where cells were 100% lysed by 1% Triton X-100.

[2] = tested on: BT 474 cells; assay: Lactic dehydrogenase release from BT 474 cells; format: cell-based, human; conditions: n=4, read-out: IC50, lactate dehydrogenase release from BT 474 cells
Method: as §1
(§2) Experiment 14 was designed to determine if apoptotic cell death of BT 474 cells was induced by ATA, AQA, AHA, and ATAC as determined by the release of lactic dehydrogenase into the cell medium. The protocol was identical to that used in Experiment 5(d) except that BT 474 cells were used.

[3] = tested on: DOHH2 human B-cell carcinoma cell line; assay: DOHH2 cell growth in zymosan-activated human serum (MTT cell viability); format: cell-based; conditions: 15% human serum, n=4, read-out: IC50, inhibition of DOHH2 cell growth induced by zymosan-activated human serum complement
Method: (§3) Experiment 1 was designed to determine the effect of ATA, AHA, AQA and ATAC on U251 cell growth in the presence of complement activated human serum. In Experiment 1(a), U251 cells were treated with various concentrations of human serum (1, 5, 7.5, 10, 12.5, 15%) in DMEM and incubated with 1 μg/mL zymosan at 37° C. for 72 h. Control U251 cells (CON) were incubated in fresh DMEM only. As a further control U251 cells were treated with 10% human serum heated at 56° C. for 30 min to heat inactivate complement (HIS) before incubation with 1 μg/ml zymosan. In Experiment 1(b), U251 cells were treated with various concentrations of ATAC, ATA, AQA and AHA (0.1, 1, 5, 10, 30, 50 μM) in DMEM with 15% human serum and incubated with 1 μg/mL zymosan at 37 ° C. for 72 h. In both Experiments 1(a) and 1(b), following incubation, cell viability was evaluated by MTT (3-[4,5-dimethylthiazol-2-yl]-2,5 diphenyl tetrazolium bromide) assays by adding MTT to the cell cultures to reach a final concentration of 1 mg/mL. Following a 1 h incubation at 37° C., the dark crystals formed were dissolved by adding a SDS/DMF extraction buffer (300 μL, 20% sodium dodecyl sulfate, 50% N,N-dimethylformamide, pH 4.7). Plates were subsequently incubated overnight at 37° C. and optical densities at 570 nm were measured by transferring 100 μL aliquots to 96-well plates and using a plate reader with a corresponding filter.
Experiment 15 was designed to determine the effect of ATA, AQA, 15 AHA and ATAC on DOHH2 human B-cell carcinoma cell growth. The protocol was identical to that used in Experiment 9(b) except DOHH2 human B-cell carcinoma cells were used.

[4] = tested on: DOHH2 human B-cell carcinoma cells; assay: Lactic dehydrogenase release from DOHH2 cells; format: cell-based
Method: as §1
as §2, with “16” for “14”, “DOHH2 human B-cell carcinoma” for “BT 474”, “9(d)” for “5(d)”

[5] = tested on: K562 human chronic myelogenous leukemia cells; assay: Lactic dehydrogenase release from K562 cells; format: cell-based; conditions: n=4, read-out: IC50, lactate dehydrogenase release from K562 cells
Method: as §1
as §2, with “18” for “14”, “K562 human chronic myelogenous leukemia” for “BT 474”, “16(b)” for “5(d)”

[6] = tested on: colorectal adenocarcinoma LS180 cells; assay: Lactic dehydrogenase release from LS180 cells; format: cell-based, human; conditions: n=4, read-out: IC50, lactate dehydrogenase release from LS180 cells
Method: as §1
Experiment 20 was designed to determine if apoptotic death of colorectal adenocarcinoma LS180 cells was induced by ATA, AQA, AHA, and ATAC as determined by the release of lactic dehydrogenase into the cell medium. The protocol was identical to that used in Experiment 18(b) except that colorectal adenocarcinoma cells were used.

[7] = tested on: human bone osteosarcoma MNNG cells; assay: Lactic dehydrogenase release from MNNG cells; format: cell-based; conditions: n=4, read-out: IC50, lactate dehydrogenase release from MNNG cells
Method: as §1
as §2, with “22” for “14”, “apoptotic” for “apoptotic cell”, “human bone osteosarcoma MNNG” for “BT 474”, “19(d)” for “5(d)”

[8] = tested on: human colorectal cancer cell line SW 480; assay: SW 480 cell growth in zymosan-activated human serum (MTT cell viability); format: cell-based; conditions: 15% human serum, n=4, read-out: IC50, inhibition of SW 480 cell growth induced by zymosan-activated human serum complement
Method: as §3
(§4) Experiment 23 was designed to determine the effect of ATA, AQA, 15 AHA and ATAC on growth of the human colorectal cancer cell line SW 480. The protocol was identical to that used in Experiment 15(b) except that human colorectal cancer SW480 cells were utilized. Experiment 24 was designed to determine if apoptotic death of human carcinoma SW 480 cells was induced by ATA, AQA, AHA, and ATAC as determined by the release of lactic dehydrogenase into the cell medium. The protocol was identical to that used in Experiment 15(d) except that human carcinoma SW480 cells were used and the growth medium was DMEM.

[9] = tested on: human carcinoma SW 480 cells; assay: Lactic dehydrogenase release from SW 480 cells; format: cell-based; conditions: n=4, read-out: IC50, lactate dehydrogenase release from SW 480 cells
Method: as §1, §4

[10] = n=4, read-out: IC50, lactate dehydrogenase release from DOHH2 cells

Row | IC50 ([1]; LDH as % of Triton X-100 lysis) [µM] | IC50 [2] [µM] | IC50 ([3]; DOHH2 cells) [µM] | IC50 [4, 10] [µM] | IC50 [5] [µM] | IC50 [6] [µM] | IC50 [7] [µM] | IC50 ([8]; SW 480 cells) [µM] | IC50 ([9]; DMEM) [µM] | Compound | IC50 ([1]; Homo sapiens, U-251, LDH as % of Triton X-100 lysis) [µM] | IC50 ([2]; Homo sapiens) [µM] | IC50 ([3]; DOHH-2, DOHH2 cells) [µM] | IC50 ([4]; Homo sapiens, DOHH-2, n=4, read-out: IC50, lactate dehydrogenase release from DOHH2 cells) [µM] | IC50 ([5]; Homo sapiens) [µM] | IC50 ([6]; Homo sapiens) [µM] | IC50 ([7]; Homo sapiens) [µM] | IC50 ([8]; SW480, SW 480 cells) [µM] | IC50 ([9]; Homo sapiens, SW480, DMEM) [µM]
1 |  |  |  |  |  |  |  |  |  | O=C(O)C1=CC(=C(c2ccc(O)c(C(=O)O)c2)c2ccc(O)c(C(=O)O)c2)C=CC1=O [ATA, aurin tricarboxylic acid] | 7.6 | 4.8 | 5.1 | 4.9 | 4.7 | 4.9 | 6.5 | 7 | 4.7
2 | 7.7 | 4.9 | 4.9 | 5.1 | 4.6 | 5 | 6.6 | 6.8 | 4.9 | aurin hexacarboxylic acid [AHA] |  |  |  |  |  |  |  |  | 
3 | 7.4 | 4.7 | 5 | 5 | 4.6 | 5.1 | 6.4 | 7 | 4.6 | aurin quadracarboxylic acid [AQA] |  |  |  |  |  |  |  |  | 
